Laboratory results from patent US5840684A, “Glycopeptide antibiotic derivatives” (Eli Lilly and Company, priority 1995, dated 1998).
In brackets after ≈: the same amount, converted by molar mass.

Tests used:
[1] = test system: vancomycin-susceptible enterococci; assay: broth micro-dilution, mean geometric MIC; type: cell-based, Enterococcus faecium and Enterococcus faecalis; conditions: enterococci, 24-hour incubation
[2] = test system: Staphylococcus aureus S13E; type: cell-based
Description: (§1) The MIC's were determined using a standard broth micro-dilution assay.

[3] = test system: Staphylococcus aureus SA1199B; type: cell-based
Description: as §1

[4] = test system: vancomycin-resistant enterococci; assay: broth micro-dilution, mean geometric MIC; type: cell-based, Enterococcus faecium and Enterococcus faecalis; conditions: enterococci, 24-hour incubation
[5] = test system: Staphylococcus haemolyticus 105; assay: broth micro-dilution MIC; type: cell-based
Description: (§2) The formula I compounds have in vitro and in vivo activity against Gram-positive pathogenic bacteria. The MIC's were determined using a standard broth micro-dilution assay.

[6] = test system: Enterococcus gallinarum 245; assay: broth micro-dilution MIC; type: cell-based; conditions: Enterococcus gallinarum 245
Description: as §2

[7] = test system: Haemophilus influenzae RD; assay: broth micro-dilution MIC; type: cell-based; conditions: Haemophilus influenzae RD
Description: as §2

[8] = test system: Entercoccus faecium 2041; assay: broth micro-dilution MIC; type: cell-based; conditions: Entercoccus faecium 2041
Description: as §2

[9] = test system: Staphylococcus haemolyticus 415; assay: broth micro-dilution MIC; type: cell-based
Description: as §2

[10] = test system: Entercoccus faecium 180; assay: broth micro-dilution MIC; type: cell-based; conditions: Entercoccus faecium 180
Description: as §2

[11] = test system: Staphylococcus epidermidis 270; assay: broth micro-dilution MIC; type: cell-based
Description: as §2

[12] = test system: Entercoccus faecium 276; assay: broth micro-dilution MIC; type: cell-based
Description: as §1

[13] = test system: Staphylococcus aureus X400; assay: broth micro-dilution MIC; type: cell-based
Description: as §1

[14] = test system: Staphylococcus aureus X778; assay: broth micro-dilution MIC; type: cell-based
Description: as §1

[15] = test system: Staphylococcus aureus 447; assay: broth micro-dilution MIC; type: cell-based
Description: as §1

[16] = test system: Staphylococcus aureus 489; assay: broth micro-dilution MIC; type: cell-based
Description: as §1

[17] = test system: Staphylococcus aureus 446; assay: broth micro-dilution MIC; type: cell-based
Description: as §1

[18] = test system: Entercoccus faecium 180-1; assay: broth micro-dilution MIC; type: cell-based
Description: as §1

[19] = test system: Staphylococcus aureus SA1199; assay: broth micro-dilution MIC; type: cell-based
Description: as §1

[20] = test system: Staphylococcus aureus 491; assay: broth micro-dilution MIC; type: cell-based
Description: as §1

[21] = test system: Streptococcus pneumoniae P1; assay: broth micro-dilution MIC; type: cell-based
Description: as §2

[22] = test system: Streptococcus pyogenes C203; assay: broth micro-dilution MIC; type: cell-based
Description: as §1

[23] = test system: Staphylococcus aureus SA1199A; assay: broth micro-dilution MIC; type: cell-based
Description: as §1

| SMILES | mean geometric MIC, Vancomycin Sensitive Strains [1] [µg/mL] | MIC [2] [µg/mL] | MIC [3] [µg/mL] | mean geometric MIC, Vancomycin Resistant Strains [4] [µg/mL] | MIC [5] [µg/mL] | MIC [6] [µg/mL] | MIC [7] [µg/mL] | MIC [8] [µg/mL] | MIC [9] [µg/mL] | MIC [10] [µg/mL] | MIC [12] [µg/mL] | MIC [13] [µg/mL] | MIC [14] [µg/mL] | MIC [16] [µg/mL] | MIC [17] [µg/mL] | MIC [18] [µg/mL] | MIC [19] [µg/mL] | MIC [20] [µg/mL] | MIC [21] [µg/mL] | MIC [23] [µg/mL] | also measured |
| --- | --- | --- | --- | --- | --- | --- | --- | --- | --- | --- | --- | --- | --- | --- | --- | --- | --- | --- | --- | --- | --- |
| CNC(CC(C)C)C(=O)NC1C(=O)NC(CC(N)=O)C(=O)NC2C(=O)NC3C(=O)NC(C(=O)NC(C(=O)O)c4cc(O)cc(O)c4-c4cc3ccc4O)C(OC3CC(C)(N)C(O)C(C)O3)c3ccc(c(Cl)c3)Oc3cc2cc(c3OC2OC(CO)C(O)C(O)C2OC2CC(C)(NCCCCCCCCc3ccccc3)C(O)C(C)O2)Oc2ccc(cc2Cl)C1O (stereo not drawn) [Compound 176] | 0.13 | 2 (≈ 1.12 µM) | 1 (≈ 0.562 µM) | 1.2 | 4 (≈ 2.25 µM) | 2 (≈ 1.12 µM) | 8 (≈ 4.49 µM) | 0.125 (≈ 0.0702 µM) | 2 (≈ 1.12 µM) | 2 (≈ 1.12 µM) | 2 (≈ 1.12 µM) | 1 (≈ 0.562 µM) | 1 (≈ 0.562 µM) | 0.5 (≈ 0.281 µM) | 2 (≈ 1.12 µM) | ≤ 0.06 | 2 (≈ 1.12 µM) | 2 (≈ 1.12 µM) |  |  | MIC [11]: 0.5 µg/mL (≈ 0.281 µM); MIC [15]: 1 µg/mL (≈ 0.562 µM) |
| CNC(CC(C)C)C(=O)NC1C(=O)NC(CC(N)=O)C(=O)NC2C(=O)NC3C(=O)NC(C(=O)NC(C(=O)O)c4cc(O)cc(O)c4-c4cc3ccc4O)C(OC3CC(C)(N)C(O)C(C)O3)c3ccc(c(Cl)c3)Oc3cc2cc(c3OC2OC(CO)C(O)C(O)C2OC2CC(C)(NCCCCCCCCOc3ccc(-c4ccccc4)cc3)C(O)C(C)O2)Oc2ccc(cc2Cl)C1O (stereo not drawn) [Compound 201] | 0.44 | 8 (≈ 4.27 µM) |  | 1.2 | 8 (≈ 4.27 µM) | 8 (≈ 4.27 µM) | 32 (≈ 17.1 µM) | 1 (≈ 0.534 µM) | 8 (≈ 4.27 µM) | 0.5 (≈ 0.267 µM) | 4 (≈ 2.14 µM) | 4 (≈ 2.14 µM) | 4 (≈ 2.14 µM) | 8 (≈ 4.27 µM) | 4 (≈ 2.14 µM) | 0.5 (≈ 0.267 µM) | 8 (≈ 4.27 µM) | 4 (≈ 2.14 µM) | ≤ 0.06 | 2 (≈ 1.07 µM) | MIC [11]: 4 µg/mL (≈ 2.14 µM); MIC [22]: ≤ 0.06 µg/mL |
| CNC(CC(C)C)C(=O)NC1C(=O)NC(CC(N)=O)C(=O)NC2C(=O)NC3C(=O)NC(C(=O)NC(C(=O)O)c4cc(O)cc(O)c4-c4cc3ccc4O)C(OC3CC(C)(N)C(O)C(C)O3)c3ccc(c(Cl)c3)Oc3cc2cc(c3OC2OC(CO)C(O)C(O)C2OC2CC(C)(NCCCCC3CCCCC3)C(O)C(C)O2)Oc2ccc(cc2Cl)C1O (stereo not drawn) [Compound 205] | 0.036 | 0.5 (≈ 0.289 µM) | 0.5 (≈ 0.289 µM) | 1 | 1 (≈ 0.578 µM) | 1 (≈ 0.578 µM) | 16 (≈ 9.24 µM) | 0.25 (≈ 0.144 µM) | 1 (≈ 0.578 µM) | 0.5 (≈ 0.289 µM) | 0.5 (≈ 0.289 µM) | 0.5 (≈ 0.289 µM) | 0.5 (≈ 0.289 µM) | 0.5 (≈ 0.289 µM) | 2 (≈ 1.16 µM) | ≤ 0.06 | 1 (≈ 0.578 µM) | 0.5 (≈ 0.289 µM) | ≤ 0.06 | ≤ 0.06 | MIC [22]: ≤ 0.06 µg/mL; MIC [15]: 0.5 µg/mL (≈ 0.289 µM) |
| CNC(CC(C)C)C(=O)NC1C(=O)NC(CC(N)=O)C(=O)NC2C(=O)NC3C(=O)NC(C(=O)NC(C(=O)O)c4cc(O)cc(O)c4-c4cc3ccc4O)C(OC3CC(C)(N)C(O)C(C)O3)c3ccc(c(Cl)c3)Oc3cc2cc(c3OC2OC(CO)C(O)C(O)C2OC2CC(C)(NCc3ccc(-c4ccccc4[N+](=O)[O-])c([N+](=O)[O-])c3)C(O)C(C)O2)Oc2ccc(cc2Cl)C1O (stereo not drawn) [Compound 213] | 0.55 | ≤ 0.06 | ≤ 0.06 | 1.0 | 0.5 (≈ 0.27 µM) | 2 (≈ 1.08 µM) | 32 (≈ 17.3 µM) | ≤ 0.06 | 2 (≈ 1.08 µM) | 0.125 (≈ 0.0676 µM) | ≤ 0.06 | ≤ 0.06 | ≤ 0.06 | ≤ 0.06 | ≤ 0.06 | ≤ 0.06 | ≤ 0.06 | ≤ 0.06 | ≤ 0.06 | ≤ 0.06 | MIC [11]: 0.5 µg/mL (≈ 0.27 µM) |
| C=CCCCCCCCCNC1(C)CC(OC2C(Oc3c4cc5cc3Oc3ccc(cc3Cl)C(OC3CC(C)(N)C(O)C(C)O3)C3NC(=O)C(NC(=O)C5NC(=O)C(CC(N)=O)NC(=O)C(NC(=O)C(CC(C)C)NC)C(O)c5ccc(c(Cl)c5)O4)c4ccc(O)c(c4)-c4c(O)cc(O)cc4C(C(=O)O)NC3=O)OC(CO)C(O)C2O)OC(C)C1O (stereo not drawn) [Compound 214] | 0.024 | 1 (≈ 0.578 µM) | 1 (≈ 0.578 µM) | 0.71 | 1 (≈ 0.578 µM) | 2 (≈ 1.16 µM) | 32 (≈ 18.5 µM) | 0.125 (≈ 0.0722 µM) | 2 (≈ 1.16 µM) | 0.25 (≈ 0.144 µM) | 0.25 (≈ 0.144 µM) | 0.5 (≈ 0.289 µM) | 1 (≈ 0.578 µM) | 1 (≈ 0.578 µM) | 1 (≈ 0.578 µM) | ≤ 0.06 | 0.5 (≈ 0.289 µM) | 1 (≈ 0.578 µM) | ≤ 0.06 | 0.5 (≈ 0.289 µM) | MIC [11]: ≤ 0.06 µg/mL; MIC [15]: 2 µg/mL (≈ 1.16 µM) |
| CNC(CC(C)C)C(=O)NC1C(=O)NC(CC(N)=O)C(=O)NC2C(=O)NC3C(=O)NC(C(=O)NC(C(=O)O)c4cc(O)cc(O)c4-c4cc3ccc4O)C(OC3CC(C)(N)C(O)C(C)O3)c3ccc(c(Cl)c3)Oc3cc2cc(c3OC2OC(CO)C(O)C(O)C2OC2CC(C)(NCc3ccc(-c4ccc(C#N)cc4)cc3)C(O)C(C)O2)Oc2ccc(cc2Cl)C1O (stereo not drawn) [Compound 231] | 0.11 | ≤ 0.06 | ≤ 0.06 | 1.7 | ≤ 0.06 | 0.5 (≈ 0.28 µM) | 32 (≈ 17.9 µM) | ≤ 0.06 | 0.5 (≈ 0.28 µM) | ≤ 0.06 | ≤ 0.06 | ≤ 0.06 | ≤ 0.06 | ≤ 0.06 |  | ≤ 0.06 | ≤ 0.06 | ≤ 0.06 | ≤ 0.06 | ≤ 0.06 | MIC [22]: ≤ 0.06 µg/mL |
